The record followed here is ChEMBL document CHEMBL6092188, “Structure-Guided Conformational Restriction Leading to High-Affinity, Selective, and Cell-Active Tetrahydroisoquinoline-Based Noncovalent Keap1-Nrf2 Inhibitors” (J Med Chem, 2024).

For orientation: half-life means how long it takes for the measured level to halve.

A value given as a limit tells only on which side of the number the result lay.

The nature of data set [1]: Metabolic stability in male CD-1 mouse liver microsomes assessed as parent compound remaining measured after 30 mins in presence of NADPH regenerating system by LC-MS analysis. Type of data set: ADME, Microsome. The settings on record: read-out: Stability. For orientation: Liver microsomes are a subcellular fraction often used to study metabolism.
The nature of data set [2]: in vitro. The settings on record: male, CD-1, mouse, liver microsomes.
A short description of data set [3]: Metabolic stability in male Sprague-Dawley rat liver microsomes assessed as parent compound remaining measured after 30 mins in presence of NADPH regenerating system by LC-MS analysis. Type of data set: ADME, Microsome. The settings on record: read-out: Stability.
Data set [4] in a line: in vitro. The settings on record: male, Sprague-Dawley, rat, liver microsomes.
Data set [5] can be described thus: Permeability of the compound in PBS buffer at pH 7.4 at 200 uM measured after 5 hrs by PAMPA assay. Type of data set: ADME. The settings on record: for Papp at 5 h, 200 µM: PAMPA, pH 7.4, read-out: permeability. Background: The PAMPA barrier holds no transporters, so it reflects passive diffusion.
The nature of data set [6]: Metabolic stability in human liver microsomes assessed as half life measured after 1 hr in presence of NADPH regenerating system by LC-MS analysis. Type of data set: ADME, Microsome.
Data set [7] in a line: Metabolic stability in human liver microsomes assessed as parent compound remaining measured after 30 mins in presence of NADPH regenerating system by LC-MS analysis. Type of data set: ADME, Microsome. The settings on record: read-out: Stability.
The nature of data set [8]: Solubility of the compound in PBS buffer and 0.5% DMSO at 200 uM by LC-MS analysis. Type of data set: physicochemical.

With `Cn1c2ccccc2c2c(C(=O)NC(C(=O)O)c3ccc4c(c3)CN(S(=O)(=O)c3cccc(C#N)c3)CC4)cccc21` (centres undefined), the remaining at 0.5 h worked out at 22% in data set [1], 92% in data set [3] and 89% in data set [7]. The values for the half-life at 1 h in the data set “in vitro [2]” and in the data set “in vitro [4]” were 15 min and 400 min, respectively. Besides, the Papp at 5 h, 200 µM in data set [5] is 2.2 ×10⁻⁶ cm/s. Besides, the half-life in data set [6] is 200 min.
Turning to `CCOc1ccc(S(=O)(=O)N2CCc3ccc(C(NC(=O)c4cccc5c4-c4cccnc4C5=O)C(=O)O)cc3C2)cc1C#N` (centres undefined), the remaining at 0.5 h in data set [1] was 39%. The compound also returned a half-life at 1 h in the data set “in vitro [2]” of 25 min.
For `Cn1c2ccccc2c2c(C(=O)NC(C(=O)O)c3ccc4c(c3)CN(S(=O)(=O)c3ccc(F)c(C#N)c3)CC4)cccc21` (centres undefined), the remaining at 0.5 h was determined as 16% in data set [1], 86% in data set [3] and 64% in data set [7]. Besides, the half-life at 1 h in the data set “in vitro [2]” was determined as 13 min; in the data set “in vitro [4]” it was 240 min. In addition, the Papp at 5 h, 200 µM in data set [5] came out at 4.7 ×10⁻⁶ cm/s. Also, in data set [6], the half-life was determined as 51 min.
For the compound `O=C(NC(C(=O)O)c1ccc2c(c1)CN(S(=O)(=O)c1cccc(Br)c1)CC2)c1cccc2c1-c1ccccc1C2=O` (centres undefined), the remaining at 0.5 h in data set [1] is 0%. Also, the half-life at 1 h in the data set “in vitro [2]” is 3.3 min.
In the same order, the values of `COc1ccc(S(=O)(=O)NCc2cccc(C(NC(=O)c3cccc4c3-c3ccccc3C4=O)C(=O)O)c2)cc1` (centres undefined) are less than 3% and 3.6 min.
Turning to `CCOc1ccc(S(=O)(=O)N2CCc3ccc(C(NC(=O)c4cccc5c4c4ccccc4n5C)C(=O)O)cc3C2)cc1C#N` (centres undefined), the remaining at 0.5 h amounted to 8% in data set [1], 86% in data set [3] and 66% in data set [7]. Also, the figures for the half-life at 1 h in the data set “in vitro [2]” and in “in vitro [4]” were 8 min and 280 min, respectively. The Papp at 5 h, 200 µM in data set [5] was determined as 4.7 ×10⁻⁶ cm/s. Further, in data set [6], the half-life was 47 min.
As for `COc1ccc(S(=O)(=O)N2CCc3ccc(C(NC(=O)c4cccc5c4-c4ccccc4C5=O)C(=O)O)cc3C2)cc1` (centres undefined), the remaining at 0.5 h in data set [1] is less than 3%. The compound also returned a half-life at 1 h in “in vitro [2]” of 3.8 min. The permeability result in data set [5] (pampa, pH 7.4, 5 h, 200 µM) is reported as “Permeable”. In addition, the solubility entry in data set [8] is “soluble”.
On to `CCOc1ccc(S(=O)(=O)N2CCc3ccc(C(NC(=O)c4cccc5c4-c4ccccc4C5F)C(=O)O)cc3C2)cc1C#N` (centres undefined), for which the remaining at 0.5 h in data set [1] was 19%. The compound further registered a half-life at 1 h in the data set “in vitro [2]” of 12 min.
For the compound `N#Cc1cccc(S(=O)(=O)N2CCc3ccc(C(NC(=O)c4cccc5c4-c4ccccc4C5=O)C(=O)O)cc3C2)c1` (centres undefined), the values for the remaining at 0.5 h in data set [1], in data set [3] and in data set [7] were 7.5%, 83% and less than 3%, respectively. Besides, the half-life at 1 h was determined as 6.1 min in “in vitro [2]” and 130 min in the data set “in vitro [4]”. For the same compound, in data set [6], the half-life is 6.1 min.
Regarding `COc1cccc(S(=O)(=O)NCc2cccc(C(NC(=O)c3cccc4c3-c3ccccc3C4=O)C(=O)O)c2)c1` (centres undefined), the solubility result in data set [8] is listed as “soluble”.
Take `Cn1c2ccccc2c2c(C(=O)NC(C(=O)O)c3ccc4c(c3)CN(S(=O)(=O)c3cccc(Br)c3)CC4)cccc21` (centres undefined): the remaining at 0.5 h in data set [1] is less than 3%. Also, the half-life at 1 h in “in vitro [2]” was found to be 5.4 min.
Regarding `CN(C)c1cccc(S(=O)(=O)NCc2cccc([C@@H](NC(=O)c3cccc4c3-c3ccccc3C4=O)C(=O)O)c2)c1`, the solubility entry in data set [8] is “soluble”.
For the compound `COc1ccc(S(=O)(=O)N2CCc3ccc(C(NC(=O)c4cccc5c4-c4ccccc4C5=O)C(=O)O)cc3C2)cc1C#N` (centres undefined), the remaining at 0.5 h in data set [1] was 3.5%. Further, the half-life at 1 h in the data set “in vitro [2]” was determined as 4.5 min.
As to `CCOc1ccc(S(=O)(=O)N2CCc3ccc(C(NC(=O)c4cccc5c4-c4ccccc4C5=O)C(=O)O)cc3C2)cc1C#N` (centres undefined), the remaining at 0.5 h in data set [1] was 3%; in data set [3], 78%; in data set [7] it was less than 3%. In addition, the half-life at 1 h turned out to be 3.8 min in “in vitro [2]” and 99 min in “in vitro [4]”. Besides, the half-life in data set [6] was 5.1 min.
For the compound `N#Cc1cc(S(=O)(=O)N2CCc3ccc(C(NC(=O)c4cccc5c4-c4ccccc4C5=O)C(=O)O)cc3C2)ccc1F` (centres undefined), the remaining at 0.5 h in data set [1] is less than 3%; in data set [3], 77%; in data set [7], less than 3%. In addition, the half-life at 1 h is 3.2 min in the data set “in vitro [2]” and 78 min in the data set “in vitro [4]”. For the same compound, the half-life in data set [6] stood at 4.5 min.
As to `CCOc1ccc(S(=O)(=O)N2CCc3ccc(C(NC(=O)c4cccc5c4-c4ccccc4C5)C(=O)O)cc3C2)cc1C#N` (centres undefined), the remaining at 0.5 h in data set [1] is less than 3%. In “in vitro [2]”, this compound came in with a half-life at 1 h of 4.7 min.
